# Measurements published in US20240368133A1, “Compounds for the Treatment of Pain, in Particular, Neuropathic Pain, and/or Other Diseases or Disorders that are Associated with AT2R and/or AT2R Mediated Signaling” (Confo Therapeutics N.V., priority 2021, published 2024).
# Legend:
# Format in all cases: in vitro ADME
# [1] = PAMPA (Parallel Artificial Membrane Permeability Assay), GIT model
# From the text: The Parallel Artificial Membrane Permeability Assay (PAMPA) is used as an in vitro model of passive, transcellular permeation. PAMPA eliminates the added complexities of active transport, allowing ranking compounds just based on a simple membrane permeability property. This simple assay also allows evaluation of permeability over a large pH range, which is valuable for a preliminary understanding of how orally delivered compounds might be absorbed across the entire gastrointestinal tract. Depending upon the types of lipids used and other experimental conditions, PAMPA may be designed to model absorption in gastrointestinal tract (PAMPA-GIT), blood-brain barrier penetration (PAMPA-BBB) or skin penetration (Skin PAMPA).
# All steps of the PAMPA were carried out according to pION Inc. PAMPA Explorer™ Manual. The main principle of the assay is the incubation of compound in donor chamber (a well in Donor Plate) with aqueous buffer, which is separated from acceptor chamber (a well in Acceptor Plate) with another buffer by a phospholipid or hydrocarbon membrane fixed on a filter support. After the test, concentrations in the corresponding donor and acceptor wells are measured and permeability is calculated.
# GIT model was simulated using GIT-0 phospholipid mix. Verapamil and quinidine (high permeability) and ranitidine (low permeability) were used as reference compounds. All compounds were tested in triplicates.
# Solutions of the test and reference compounds were added into the Donor Plate wells in Prisma HT buffer (pH 7.4). Acceptor Sink Buffer was added into each well of the Acceptor Plate. Incubation was done at room temperature for 4 hours without stirring. After incubation, aliquots from both plates were transferred to optic UV-Vis plates and optic plates were read on microplate reader in absorbance mode in the range of 202-500 nm with 4 nm step. Compounds with low UV-Vis signal were detected by LC-MS/MS method (API 3000 (PE Sciex)). Both the positive and negative ion modes of the TurboIonSpray ion source were used. Acquisition and analysis of the data were performed using Analyst 1.5.2 software (PE Sciex). The apparent permeability coefficient was calculated according to the equation shown below:
# with: • VD=volume of transport buffer in donor compartment • A=surface area of the lipids in the insert (effective growth area of the insert—0.3 sq.cm) • t=time of the assay, seconds • Cdon=final concentration of test compound in the donor compartment • Cref=starting concentration of test compound in the donor compartment • εa=apparent filter porosity, equals to 0.76
# [formula] • Cacc=final concentration of test compound in the […] compartment • τss=steady state lag time, estimated as (54RM+1)×60 s
# Values of Cdon/Cref and Cacc/Cref are practically calculated using optical absorbance data. Mass retention by the lipid membrane is a normal condition in PAMPA assays for hydrophobic compounds but high levels of the mass retention makes compounds more permeable in vivo than it could be predicted from PAMPA assay. Mass retention was calculated as follows:
# • [drug]acc=final OD of test compound in acceptor well • [drug]d=starting OD of test compound in a donor well • [drug]fd=final OD of test compound in a donor well
# [2] = Metabolic stability in hepatocytes, rat; conditions: hepatocytes (cryopreserved), read-out: Rat Clint (μL/min/10^6 cells)
# Method: (§1) The aim of this assay is to determine the metabolic stability of the compound in hepatocytes (cryopreserved) of different species (mouse CD1, rat Sprague Dawley, dog Beagle). Low hepatocyte stability may result in the formation of unwanted metabolites, high clearance, and therefore is not desirable. The decrease in parent was assessed by measuring the percentage remaining by LC-MS/MS analysis. The batches of hepatocytes were tested for quality control using Testosterone, Umbelliferone and Caffeine as reference compounds.
# (§2) A 10 mM stock solution of test compound in DMSO was first diluted in DMSO to 3 mM, and then in modified Krebs-Henseleit buffer (Sigma, K3753) to 5 μM. This compound dilution was added to a suspension of pooled cryopreserved hepatocytes (BioIVT) at 37° C. under gentle shaking. Final reaction conditions were: 1 μM of test compound, <0.1% DMSO, 0.5 million viable hepatocytes/mL, and 75 μL incubation volume.
# (§3) After 0, 10, 20, 45, 90, 120 and 180 min of incubation, the reaction was terminated with 3 volumes of MeCN:MeOH (2:1) containing diclofenac as analytical internal standard. Samples were mixed, centrifuged and the supernatant analyzed by LC-MS/MS (systems API4000). The instrument responses (ratios of test compound and internal standard peak areas) were referenced to the zero time point samples (considered as 100%) in order to determine the percentage of compound remaining. Plots of percentage compound remaining were used to determine the intrinsic clearance in the hepatocyte incubations.
# (§4) Testosterone (1 μM) and Umbelliferone (1 μM) and Caffeine (1 μM) were used as reference compounds, being unstable and stable compounds respectively. If the hepatocyte stability values for these controls are not in the range determined by the historical data, the assay is not validated.
# [3] = Metabolic stability in hepatocytes, mouse; conditions: hepatocytes (cryopreserved), read-out: Mouse Clint (μL/min/10^6 cells)
# Method: as §1, §2, §3, §4
Structure (SMILES),Mass retention (%) [1],"Permeability Papp, Log10 (10^−6 cm/s) [1]",hepatocyte CLint [2],hepatocyte CLint [3]
CC(C)Oc1ccc(-c2nn[nH]n2)c(N2CCN(Cc3nc4ccccc4c(=O)[nH]3)CC2)c1 [Compound A-32],20%,−4.6 Log10 (10^−6 cm/s),,
"CC(C)Cc1ccc(-c2nn[nH]n2)c(N2CCN(Cc3nc4ccccc4n3C)CC2)c1 [Compound A-20, 2-[[4-[5-isobutyl-2-(2H-tetrazol-5-yl)-phenyl]piperazin-1-yl]methyl]-1-meth-yl-benzimidazole]",28%,<−7 Log10 (10^−6 cm/s),,
"CC(C)Cc1cc(F)c(-c2nn[nH]n2)c(N2CCN(Cc3ccccn3)[C@@H](C)C2)c1 [Compound A-217, (2S)-4-[3-fluoro-5-isobutyl-2-(2H-tetrazol-5-yl)phenyl]-2-methyl-1-(2-pyridylmethyl)piperazine]",,,8.7 µL/min/1e6 cells,
"CCC1CN(c2cc(CC(C)C)cc(F)c2-c2nn[nH]n2)CCN1Cc1cccnn1 (stereo not drawn) [Compound A-178, 3-[[2-ethyl-4-[3-fluoro-5-isobutyl-2-(2H-tetrazol-5-yl)phenyl]piperazin-1-yl]methyl]pyridazine]",,,0.2 µL/min/1e6 cells,0.8 µL/min/1e6 cells
"CCCCOC(=O)NS(=O)(=O)c1ccc(C(F)(F)F)cc1N1CCN(Cc2nc3ccccc3n2C)CC1 [Compound A-09, butyl N-[2-[4-[(1-methylbenzimidazol-2-yl)methyl]piperazin-1-yl]-4-(trifluoromethyl)phenyl]sulfonylcarbamate]",10%,<−7 Log10 (10^−6 cm/s),,
"CC(C)Cc1cc(F)c(-c2nn[nH]n2)c(N2CC(C)N(Cc3cccnn3)CC2C)c1 (stereo not drawn) [Compound A-183, 3-[[4-[3-fluoro-5-isobutyl-2-(2H-tetrazol-5-yl)phen-yl]-2,5-dimethyl-piperazin-1-yl]-methyl]pyridazine]",,,2.6 µL/min/1e6 cells,2 µL/min/1e6 cells
"CC(C)Cc1cc(F)c(-c2nn[nH]n2)c(N2CCN(Cc3cccnn3)[C@@H](C)C2)c1 [Compound A-174, 3-[[(2S)-4-[3-fluoro-5-isobutyl-2-(2H-tetrazol-5-yl)phenyl]-2-methyl-piperazin-1-yl]methyl]pyridazine]",0%,−5.5 Log10 (10^−6 cm/s),10.5 µL/min/1e6 cells,< 5.4 µL/min/1e6 cells

# Other lines, results leading:
Mass retention (%) [1],"Permeability Papp, Log10 (10^−6 cm/s) [1]",hepatocyte CLint [2],hepatocyte CLint [3],Structure (SMILES)
8%,<−7 Log10 (10^−6 cm/s),,,"CCCCNC(=O)NS(=O)(=O)c1ccc(C(F)(F)F)cc1N1CCN(Cc2nc3ccccc3n2C)CC1 [Compound A-10, 1-butyl-3-[2-[4-[(1-methylbenzimidazol-2-yl)methyl]piperazin-1-yl]-4-(trifluoromethyl)phenyl]sulfonyl-urea]"
24%,<−7 Log10 (10^−6 cm/s),,,"CC(C)Oc1ccc(-c2nn[nH]n2)c(N2CCN(Cc3nc4ccccc4n3C)CC2)c1 [Compound A-24, 2-[[4-[5-isopropoxy-2-(2H-tetrazol-5-yl)phenyl]piperazin-1-yl]methyl]-1-methyl-benzimidazole]"
,,2 µL/min/1e6 cells,4 µL/min/1e6 cells,"CC(C)Cc1cc(F)c(-c2nn[nH]n2)c(N2CCN(Cc3cccnn3)C(C)C2)c1 (stereo not drawn) [Compound A-173, 3-[[4-[3-fluoro-5-isobutyl-2-(2H-tetrazol-5-yl)phenyl]-2-methyl-piperazin-1-yl]methyl]pyridazine]"
,,1 µL/min/1e6 cells,1 µL/min/1e6 cells,"CCC1CN(Cc2cccnn2)CCN1c1cc(CC(C)C)cc(F)c1-c1nn[nH]n1 (stereo not drawn) [Compound A-181, 3-[[3-ethyl-4-[3-fluoro-5-isobutyl-2-(2H-tetrazol-5-yl)phenyl]piperazin-1-yl]methyl]pyridazine]"
14%,−4.2 Log10 (10^−6 cm/s),,,"CC(C)Oc1ccc(-c2nn[nH]n2)c(N2CCN(Cc3nc4ccccc4s3)CC2)c1 [Compound A-51, 2-[[4-[5-isoprop-oxy-2-(2H-tetrazol-5-yl)phenyl]piper-azin-1-yl]methyl]-1,3-benzothiazole]"
7%,<−7 Log10 (10^−6 cm/s),,,"CCCCNC(=O)NS(=O)(=O)c1ccc(C)cc1N1CCN(Cc2nc3ccccc3n2C)CC1 [Compound A-12, 1-butyl-3-[4-methyl-2-[4-[(1-methylbenzimidazol-2-yl)methyl]piperazin-1-yl]phenyl]sulfonyl-urea]"
